Test results from patent US8697691B2, “Alkyl 3-((2-amidoethyl)amino)-8-azabicyclo[3.2.1]octane-8-carboxylate analogs as selective M1 agonists and methods of making and using same” (Vanderbilt University, priority 2009, dated 2014).

Tests used:
[1] = molecular target: T1, hM5 receptor (Homo sapiens, UniProt P08912); assay: Calcium mobilization assay, CHO cells stably expressing hM5; type: cell-based
T1 construct: expressed in transfected cells; host or cells: CHO cells (Levey et al., 1991)
T1 sequence (P08912 1-532): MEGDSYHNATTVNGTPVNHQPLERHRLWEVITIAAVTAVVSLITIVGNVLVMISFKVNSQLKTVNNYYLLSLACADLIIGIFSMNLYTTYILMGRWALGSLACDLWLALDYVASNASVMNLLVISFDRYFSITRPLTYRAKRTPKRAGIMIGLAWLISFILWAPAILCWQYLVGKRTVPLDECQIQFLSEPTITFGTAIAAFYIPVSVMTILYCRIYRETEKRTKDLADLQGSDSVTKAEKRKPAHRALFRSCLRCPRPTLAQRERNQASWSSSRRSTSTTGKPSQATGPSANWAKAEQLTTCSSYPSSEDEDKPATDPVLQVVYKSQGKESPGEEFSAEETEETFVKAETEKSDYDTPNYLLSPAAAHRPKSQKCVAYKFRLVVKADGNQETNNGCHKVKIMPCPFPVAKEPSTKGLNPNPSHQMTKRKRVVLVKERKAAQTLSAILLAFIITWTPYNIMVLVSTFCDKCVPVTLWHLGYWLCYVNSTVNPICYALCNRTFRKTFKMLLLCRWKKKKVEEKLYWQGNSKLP
Excerpt: (§1) Chinese hamster ovary (CHO-K1) cells stably expressing rat (r)M1 were purchased from the American Type Culture Collection and cultured according to their indicated protocol. CHO cells stably expressing human (h)M2, hM3, and hM5 were described previously (Levey et al., 1991); hM1 and hM4 cDNAs were purchased from Missouri S&T cDNA Resource; rM4 cDNA was provided by T. I. Bonner (National Institutes of Health, Bethesda, Md.). hM1, hM4, and rM4 cDNAs were used to stably transfect CHO-K1 cells purchased from the American Type Culture Collection using Lipofectamine2000. […]
(§2) For low throughput measurement of agonist-evoked increases in intracellular calcium, CHO-K1 cells stably expressing muscarinic receptors were plated in 100 μL of growth medium at 5×10^4 (rM1, hM3, and hM5) or 6×10^4 cells per well (rM1 Y381A, hM2, and rM4) in Costar 96-well black-walled, tissue culture (TC)-treated, clear-bottom plates (Fisher). […] For calcium fluorescence measurements, CRCs of compounds (50 μl, 2×) were added 19 s after the beginning of data collection via a Flexstation II (Molecular Devices, Sunnyvale, Calif.). Fluorescence imaging continued for a total of 130 s acquisition time using an excitation wavelength of 488 nm, an emission wavelength of 525 nm, and a cutoff wavelength of 515 nm. […]

[2] = molecular target: T2, hM3 receptor (Homo sapiens, UniProt P20309); assay: Calcium mobilization assay, CHO cells stably expressing hM3; type: cell-based
T2 construct: expressed in transfected cells; host or cells: CHO cells (Levey et al., 1991)
T2 sequence (P20309 whole entry): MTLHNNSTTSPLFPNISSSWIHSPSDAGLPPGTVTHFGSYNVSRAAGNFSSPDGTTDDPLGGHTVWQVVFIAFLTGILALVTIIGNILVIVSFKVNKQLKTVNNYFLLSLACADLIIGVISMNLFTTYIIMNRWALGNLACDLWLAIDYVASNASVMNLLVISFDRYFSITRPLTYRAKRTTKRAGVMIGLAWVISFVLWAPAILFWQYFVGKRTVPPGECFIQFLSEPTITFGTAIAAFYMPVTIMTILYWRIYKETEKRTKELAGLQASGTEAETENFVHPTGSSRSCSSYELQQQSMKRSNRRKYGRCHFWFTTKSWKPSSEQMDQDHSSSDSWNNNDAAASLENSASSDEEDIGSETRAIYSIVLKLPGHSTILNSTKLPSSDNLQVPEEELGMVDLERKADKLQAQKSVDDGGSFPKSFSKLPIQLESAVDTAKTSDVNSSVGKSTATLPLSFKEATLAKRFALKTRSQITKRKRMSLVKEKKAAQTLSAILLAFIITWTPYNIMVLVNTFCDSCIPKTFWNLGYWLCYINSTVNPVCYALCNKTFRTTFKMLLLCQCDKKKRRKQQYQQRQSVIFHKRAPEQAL
Excerpt: as §1, §2

SMILES | EC50 [1] [µM] | EC50 [2] [µM]
CCOC(=O)N1[C@@H]2CC[C@H]1C[C@@H](NCCNC(=O)c1ccccc1)C2 [Example 27, ethyl 3-((3-endo)-(2-benzamidoethyl)amino)-8-azabicyclo[3.2.1]octane-8-carboxylate] | ~10 | ~10
CCOC(=O)N1[C@@H]2CC[C@H]1C[C@H](NCCNC(=O)c1ccccc1)C2 [Example 26, ethyl 3-((3-exo)-(2-benzamidoethyl)amino)-8-azabicyclo[3.2.1]octane-8-carboxylate] | > 10 | > 10
